Data set [1] can be described thus: Metabolic stability in mouse liver microsomes assessed as half life incubated upto 60 mins in presence of NADPH by LC-MS/MS analysis. The data set is classed as ADME, Microsome.
Data set [2] concerns MOLM-13. The data set is described as follows: Antitumor activity against human MOLM-13 cells xenografted in NSG mouse assessed as tumor growth inhibition at 0.625 to 2.5 mg/kg,po administrated for 21 days relative to control. Type of data set: functional. As to conditions: dose 0.625-2.5 mg/kg, time 21 day.
Data set [3] in a line: Lipophilicity, logD of compound. As to conditions: octanol/water. The data set is classed as physicochemical.
A short description of data set [4]: Equilibrium solubility of compound in SGF at pH 1 using crystalline form incubated for 2 to 5 days by HPLC analysis. Type of data set: ADME. As to conditions: time 2-5 day.
A short description of data set [5]: Cmax in C57BL mouse at […] measured upto 24 hrs by LC-MS/MS analysis. Type of data set: ADME, organism-based. As to conditions: in vivo.
In data set [6] the test system is MOLM-13. The data set is described as follows: Antiproliferative activity against human MOLM-13 cells assessed as inhibition of cell growth incubated for 72 hrs by CellTiter-Glo assay. Type of data set: functional, cell-based. As to conditions: MOLM-13, 72 h.
A short description of data set [7]: Plasma protein binding in C57BL mouse at 1 uM incubated for 6.5 hrs by LC-MS/MS analysis. The data set is classed as ADME, cell-free. As to conditions: read-out: PPB (converted).
The test system of data set [8] is MOLM-13. The data set is described as follows: Antitumor activity against human MOLM-13 cells xenografted in NSG mouse assessed as tumor growth inhibition at po administrated for 21 days. Type of data set: functional, organism-based. As to conditions: time 21.0 day.
The nature of data set [9]: AUC (0 to infinity) in C57BL mouse at 2 mg/kg,iv measured upto 24 hrs by LC-MS/MS analysis. The data set is classed as ADME, organism-based. As to conditions: in vivo.
Data set [10] can be described thus: Half life in C57BL mouse at 2 mg/kg,iv measured upto 24 hrs by LC-MS/MS analysis. As to conditions: in vivo. The data set is classed as ADME, organism-based.
Data set [11] in a line: Metabolic stability in human liver microsomes assessed as half life incubated upto 60 mins in presence of NADPH by LC-MS/MS analysis. The data set is classed as ADME, Microsome.
Data set [12] in a line: Equilibrium solubility of compound in PBS at pH 7 incubated for 2 to 5 days by HPLC analysis. As to conditions: time 2-5 day. The data set is classed as physicochemical.
Data set [13] in a line: Equilibrium solubility of compound in FaSSIF at pH 6.5 using crystalline form incubated for 2 to 5 days by HPLC analysis. The data set is classed as ADME. As to conditions: time 2-5 day.
A short description of data set [14]: Volume of distribution at steady state in C57BL mouse at 2 mg/kg,iv measured upto 24 hrs by LC-MS/MS analysis. As to conditions: in vivo, read-out: Vdss. Type of data set: ADME, organism-based.
A short description of data set [15]: Tmax in C57BL mouse at […] measured upto 24 hrs by LC-MS/MS analysis. The data set is classed as ADME, organism-based. As to conditions: in vivo.
A short description of data set [16]: Equilibrium solubility of compound in PBS at pH 2 incubated for 2 to 5 days by HPLC analysis. Type of data set: physicochemical. As to conditions: PBS, time 2-5 day.
A short description of data set [17]: Passive permeability across apical to basolateral side in dog MDCK-MDR1 cells. Type of data set: ADME, cell-based, Canis lupus familiaris.
Data set [18] is described as follows: Oral bioavailability in C57BL mouse at 10 mg/kg measured upto 24 hrs by LC-MS/MS analysis. The data set is classed as ADME, organism-based. As to conditions: in vivo.
A short description of data set [19]: Plasma protein binding in human at 1 uM incubated for 6.5 hrs by LC-MS/MS analysis. As to conditions: read-out: PPB (converted). The data set is classed as ADME, cell-free.

This is an account of results in ChEMBL document CHEMBL5584243, “Discovery of JNJ-74856665: A Novel Isoquinolinone DHODH Inhibitor for the Treatment of AML” (J Med Chem, 2024).

Structures are written as SMILES. Bounds are passed on as bounds.

Turning to `CCn1c(CO)nn(-c2cc3c(C(C)C)cn(-c4c(F)cccc4Cl)c(=O)c3cc2F)c1=O`, the figures for the half-life in [1], in data set [10] and in data set [11] were greater than 3 h, 5.1 h and greater than 3 h, respectively. In addition, in the data set on MOLM-13 [2], the inhibition of tumour growth (TGI) is reported as greater than 80%. The same compound returned a logD in data set [3] of 3.1. For the same compound, the solubility (thermodynamic) was less than 5 µg/mL in data set [4], less than 4 µM in data set [12], less than 5 µg/mL in data set [13] and less than 4 µM in data set [16]. For the same compound, the concentration in data set [5] peaked (Cmax) at 8200 ng/mL. Moreover, the concentration for half-maximal inhibition (IC50) in the data set on MOLM-13 [6] amounted to 220 pM. Also, the figures for the fraction unbound at 6.5 h, 1 µM in [7] and in data set [19] were 0.024 and 0.042, respectively. Further, in the data set on MOLM-13 [8], the Activity entry is “Dose-Dependent Effect”. In data set [9], this compound returned an AUC of 71800 ng·h/mL. Further, the Vd in [14] turned out to be 1.3 L/kg. Besides, the Tmax in [15] was determined as 0.83 h. Moreover, the Papp A→B in data set [17] came to 24.5 ×10⁻⁶ cm/s. In addition, in data set [18], the bioavailability amounted to 135%.
